Data published in patent US20170000784A1, “Autophagy Inhibitors” (priority 2013, published 2017).
Like-named read-outs stand apart in the source and are kept apart here.

Columns and labels:
[1] = system: phospho-ERK1/2 and LC3-II in A375 cells; test: Western blot of A375 cells treated with PLX-4032 with and without autophagy inhibitors; assay type: cell-based, human; conditions: in combination with PLX-4032, FIG. 16C
Method: For Western blotting, U2OS cells were seeded in 10 cm plates in 5A McCoy's with 10% FBS at 1×10^6 cells per plate. All melanoma lines were seeded in 10 cm plates in RPMI 1640 with 10% FBS at 1×10^6 cells per plate. After 24 hours, cells were treated with CQ, QN, Example 27, or Example 7 in a dose response of 0.3 μM, 1 μM, 3 μM, 10 μM, and 30 μM for three hours. A375 were treated with PLX-4032 (Selleck Chemicals, S1267) at 10 nM, 100 nM, and 1 μM for three hours with and without CQ, QN, Example 7, and Example 27 at 3 μM and 30 μM. After treatment, cells were lysed [10 mM KPO4, 1 mM EDTA, 10 mM MgCl2, 5 mM EGTA, 50 mM bis-glycerophosphate, 0.5% NP40, 0.1% Brij35, 0.1% sodium deoxycholate, 1 mM NaVO4, 5 mM NaF, 2 mM DTT, and complete protease inhibitors (Sigma, P8340-5 mL)] and 50 μg of protein was resolved by SDS-PAGE. Proteins were transferred to PVDF membranes and probed with primary antibodies [LC3 (Sigma, L7543-200UL), anti-α-tubulin (Sigma, T6199), cathepsin B (Santa Cruz, sc-13985)] for 16 hours at 4° C. followed by a secondary antibody [HRP-linked rabbit or mouse IgG (GE Healthcare, NA934 or NA931) or Odyssey IRDye 680CW Goat anti-rabbit IgG (LI-COR, 926-32221) or IRDye 800CW Goat anti-mouse IgG (LI-COR, 926-32210)] for 1 hour at room temperature. Proteins were detected with enhanced chemiluminescence or using the Odyssey machine and quantified (FIGS. 12, 15, 16, 7 and 11).
Since the melanoma cell lines are capable of undergoing autophagy and sensitive to autophagy inhibition, the inventors questioned whether autophagy inhibitors could improve the efficacy of, or sensitize melanoma cells against cytotoxic and chemotherapeutic drugs for advanced metastatic melanoma. In one example, PLX-4032 drug “vemurafenib” (marketed as ZELBORAF®) is a B-Raf enzyme inhibitor developed by Plexxikon and Genentech for the treatment of late-stage melanoma. The name “vemurafenib” comes from V600E mutated BRAF inhibition. PLX-4032, selectively targets the V600E mutant BRAF and it is unknown how this drug may affect autophagic flux. To determine the effects of the drug on autophagic flux, the present inventors performed experiments to determine whether PLX-4032 induces autophagy, as has been observed with other targeted agents. In some embodiments, the accumulation of LC3-II in response to lysosome inhibition was measured by quantitative Western blotting, as described above. A375 cells were treated with PLX-4032 (10 nM, 100 nM, and 1 μM) for three hours in the presence or absence of CQ.

[2] = system: P. falciparum NF54 (CQ sensitive); test: In vitro P. falciparum asexual blood stage, [3H]-hypoxanthine, NF54; assay type: cell-based, Plasmodium falciparum; conditions: for antimalarial activity score: NF54 strain; for IC50: Plasmodium falciparum, NF54, Erythrocyte, read-out: Antimalarial activity (IC50) P. falciparum NF54 (CQ sensitive)
Method: In this example, compounds of Formula A, Formula A^1, Formula A^2, Formula A^3 or pharmaceutically acceptable salts thereof, are tested in Plasmodium sp infected cells to determine the effectiveness of these compounds to determine their anti-malarial activity. Exemplary compounds, Example 7 and Example 27 (See Table 1) were dissolved in DMSO at 10 mg/mL and 4× compound dilutions were prepared in screening medium [RPMI 1640 with no hypoxanthine, HEPES (5.94 μg/L), NaHCO3 (2.1 μg/L), Neomycin (100 μg/mL), and Albumax II (5 μg/L)]. Human red blood cells were prepared without and with stock cultures of P. falciparum strains, NF54 (Chloroquinine (CQ) sensitive) and K1 (CQ resistant), to a parasitemia of 0.3% and hematocrit of 2.5%. Using a 96-well plate, 100 μL/well of red blood solution was added along with a 2-fold serial dilution of Example 7 and Example 27. Plates were incubated at 37° C. with 93% N2, 4% CO2, and 3% O2 for 48 hours, after which 50 μL of [3H]-hypoxanthine (0.5 μCi) was added to each well. After 24 hours, plates were harvested with a Betaplate™ cell harvester (Wallac, Zurich Switzerland) which transferred the red blood cells onto a glass fiber filter and washed with distilled water. Dried filters were inserted into a plastic foil with 10 mL of scintillation fluid and counted in a Betaplate™ liquid scintillation counter (Wallac, Zurich Switzerland). Results were obtained as counts per minute (cpm) per well at each concentration.

[3] = system: endogenous LC3 in U2OS cells; test: Western blot of endogenous LC3 (LC3-II accumulation) in U2OS; assay type: cell-based; conditions: dose response, three hours, FIG. 11A
Method: For Western blotting, U2OS cells were seeded in 10 cm plates in 5A McCoy's with 10% FBS at 1×10^6 cells per plate. […] After treatment, cells were lysed [10 mM KPO4, 1 mM EDTA, 10 mM MgCl2, 5 mM EGTA, 50 mM bis-glycerophosphate, 0.5% NP40, 0.1% Brij35, 0.1% sodium deoxycholate, 1 mM NaVO4, 5 mM NaF, 2 mM DTT, and complete protease inhibitors (Sigma, P8340-5 mL)] and 50 μg of protein was resolved by SDS-PAGE. […] Proteins were detected with enhanced chemiluminescence or using the Odyssey machine and quantified (FIGS. 12, 15, 16, 7 and 11).

[4] = system: P. falciparum K1 (CQ resistant); test: microbe, parasite or virus in culture; assay type: cell-based, Plasmodium falciparum; conditions: for antimalarial activity score: K1 strain; for IC50: Plasmodium falciparum, K1, Erythrocyte, read-out: Antimalarial activity (IC50) P. falciparum K1 (CQ resistant)
Method: In this example, compounds of Formula A, Formula A^1, Formula A^2, Formula A^3 or pharmaceutically acceptable salts thereof, are tested in Plasmodium sp infected cells to determine the effectiveness of these compounds to determine their anti-malarial activity. […] After 24 hours, plates were harvested with a Betaplate™ cell harvester (Wallac, Zurich Switzerland) which transferred the red blood cells onto a glass fiber filter and washed with distilled water. Dried filters were inserted into a plastic foil with 10 mL of scintillation fluid and counted in a Betaplate™ liquid scintillation counter (Wallac, Zurich Switzerland). Results were obtained as counts per minute (cpm) per well at each concentration.

Structure (SMILES)	LC3II accumulation [1]	antimalarial activity score [2]	IC50 ([2]; in vitro, infected human red blood cells) [µM]	accumulation of LC3-II [3]	antimalarial activity score [4]	IC50 [4] [µM]	IC50 [2] [µM]
COc1ccc2nc3cc(Cl)ccc3c(NCCCCN3CCN(C)CC3)c2c1 [Example 7, 6-Chloro-2-methoxy-N-(4-(4-methylpiperazin-1-yl)butyl)acridin-9-amine]	greater increases in LC3II accumulation	good activity (good activity: IC50<50 ng/mL)	0.004	increased accumulation of LC3-II	good activity (good activity: IC50<50 ng/mL)	0.023	
CN1CCN(CCNc2c3c(nc4cc(Cl)ccc24)CCCC3)CC1 [Example 27, 6-Chloro-N-(2-(4-methylpiperazin-1-yl)ethyl)-1,2,3,4-tetrahydroacridin-9-amine]	greater increases in LC3II accumulation	low activity (low activity: IC50 50-1000 ng/mL)		increased accumulation of LC3-II	low activity (low activity: IC50 50-1000 ng/mL)	0.131	0.323
